For experiment [1], the target named is NAMPT (Homo sapiens (Human), UniProt P43490). Put plainly: Biochemical Inhibition Assay (NAMPT enzymatic reaction, NMN quantified by mass spectrometry). Conditions: 33 nM recombinant His-tagged NAMPT, 1 μM NAM, 30 min at rt. In a few lines:
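His-tagged human NAMPT from E. coli preincubated 15 min at rt with compound in 50 mM Hepes pH 7.5, 50 mM NaCl, 5 mM MgCl2, 1 mM THP, then reacted 30 min at rt with 1 μM NAM, […] PRPP, 2.5 mM ATP. NMN quantified by RapidFire mass spectrometry, normalized to L-Cystathionine, background subtracted.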

Experiment [2] has as its system A2780 cells. Put plainly: In-Vitro Cell Proliferation Assay (SRB). Particulars: Homo sapiens, A2780, 72 h.
Procedure: Assay 2: In-Vitro Cell Proliferation Assay
Assay Method. […] The compounds were then further diluted to 10 OX final concentration in culture media, whereupon 20 μL of each dilution was added to the plated cells with controls (e.g. DMSO and blank) to make a final volume of 200 μL. The final DMSO concentration in each well was 0.1%. The plates were then incubated for 72 h at 37° C. in a 5% CO2 incubator. The number of viable cells was then assessed using sulforhodamine B (SRB) assay. Cells were fixed at 4° C. for 1 h with the addition of 50 μL 30% trichloroacetic acid (TCA) to make a final concentration of 6% TCA. The plates were washed four times with H2O and allowed to dry for at least 1 h, whereupon 100 μL of a 4% SRB in 1% acetic acid solution was added to each well and incubated at rt for at least 30 min. The plates were then washed three times with 1% acetic acid, dried, and treated with 100 μL of 10 mM Tris-Base solution. The plates were then read in a microplate reader at an absorbance of 570 nm. Background was generated on a separate plate with media only.
Determination of IC50 Values. First, the signals from the background plate were averaged, then the background was subtracted from the test plates.
The specificity of the compounds were determined via cell viability assay in the presence of the compound and either NAM or NMN Percent inhibitions were determined using the method given above.
[3] abbreviates: read-out: Cell Proliferation (IC50).
Setting [4] is: read-out: Cell Proliferation (IC50), A2780 cells, 72 h, sulforhodamine B.

Read-outs that look alike come from different tables or passages of the source.

Sequence of NAMPT (P43490 whole entry): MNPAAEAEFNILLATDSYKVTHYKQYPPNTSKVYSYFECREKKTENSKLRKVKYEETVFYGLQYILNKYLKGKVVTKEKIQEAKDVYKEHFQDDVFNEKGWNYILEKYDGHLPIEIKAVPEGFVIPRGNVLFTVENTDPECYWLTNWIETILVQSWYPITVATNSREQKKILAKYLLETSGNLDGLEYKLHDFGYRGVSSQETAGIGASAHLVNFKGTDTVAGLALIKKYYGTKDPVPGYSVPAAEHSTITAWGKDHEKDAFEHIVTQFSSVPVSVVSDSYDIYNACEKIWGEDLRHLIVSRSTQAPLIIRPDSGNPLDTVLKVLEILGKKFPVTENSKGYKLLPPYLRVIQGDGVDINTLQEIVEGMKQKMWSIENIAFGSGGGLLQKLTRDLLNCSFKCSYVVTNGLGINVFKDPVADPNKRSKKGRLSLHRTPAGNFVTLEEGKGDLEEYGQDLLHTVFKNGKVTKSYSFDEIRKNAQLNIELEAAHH

For `O=C(NCc1ccc(S(=O)(=O)C2CCOCC2)cn1)c1cc2ccncc2s1` [Example 53, Thieno[2,3-c]pyridine-2-carboxylic acid [5-(tetrahydro-pyran-4-sulfonyl)-pyridin-2-ylmethyl]-amide], the figures for the IC50 in experiment [1] and in experiment [2] (setting [3]) were 92.1 nM and 548 nM, respectively.

In the case of `COc1cc(OC)cc(S(=O)(=O)c2ccc(CNC(=O)c3cc4ccncc4o3)nc2)c1` [Example 112, N-[[5-(3,5-dimethoxyphenyl)sulfonyl-2-pyridyl]methyl]furo[2,3-c]pyridine-2-carboxamide], the IC50 in experiment [1] amounted to 0.99 nM; in experiment [2] (setting [3]), 1.06 nM.

Regarding `Cn1ncc2c1CN(C(=O)NCc1ccc(S(=O)(=O)c3ccccc3)cn1)C2` [Example 179, N-[[5-(benzenesulfonyl)-2-pyridyl]methyl]-1-methyl-4,6-dihydropyrrolo[3,4-c]pyrazole-5-carboxamide], the results for the IC50 in experiment [1] and in experiment [2] (setting [4]) were 1380 nM and 2000 nM, respectively.

With `O=C(NCc1ncc(S(=O)(=O)c2ccccc2)cn1)c1cc2cnccc2[nH]1` [Example 7, 1H-Pyrrolo[3,2-c]pyridine-2-carboxylic acid (5-benzenesulfonyl-pyrimidin-2-ylmethyl)-amide], the results for the IC50 in experiment [1] and in experiment [2] (setting [3]) were 150 nM and 131 nM, respectively.

Consider `COCC(=O)N1CCC(S(=O)(=O)c2ccc(CNC(=O)N3Cc4ccncc4C3)nc2)CC1` [Example 121, N-[[5-[[1-(2-methoxyacetyl)-4-piperidyl]sulfonyl]-2-pyridyl]methyl]-1,3-dihydropyrrolo[3,4-c]pyridine-2-carboxamide], for which the IC50 in experiment [1] came out at 68.2 nM; in experiment [2] (setting [3]), 2000 nM.

As to `O=C(NCc1ncc(S(=O)(=O)c2ccccc2)cn1)c1cnc2[nH]ncc2c1` [Example 6, 1H-Pyrazolo[3,4-b]pyridine-5-carboxylic acid (5-benzenesulfonyl-pyrimidin-2-ylmethyl)-amide], the IC50 in experiment [1] was found to be 108 nM; in experiment [2] (setting [4]) it was 2000 nM.

On to `O=C(NCc1ccc(S(=O)(=O)c2ccc(N3CCOCC3)nc2)cn1)c1cc2ccncc2o1` [Example 52, Furo[2,3-c]pyridine-2-carboxylic acid [5-(6-morpholin-4-yl-pyridine-3-sulfonyl)-pyridin-2-ylmethyl]-amide], for which the IC50 in experiment [1] amounted to 2 nM; in experiment [2] (setting [4]) it was 0.5 nM.

As to `O=C(NCc1ccc(S(=O)(=O)c2ccc(N3CCOCC3)cc2)cn1)c1cnc2[nH]ncc2c1` [Example 31, 1H-Pyrazolo[3,4-b]pyridine-5-carboxylic acid [5-(4-morpholin-4-yl-benzenesulfonyl)-pyridin-2-ylmethyl]-amide], the results for the IC50 in experiment [1] and in experiment [2] (setting [3]) were 19.3 nM and 7.3 nM, respectively.

As to `O=C(NCc1ccc(S(=O)(=O)c2cccc(C(F)(F)F)c2)cn1)c1cnc2[nH]ncc2c1` [Example 16, 1H-Pyrazolo[3,4-b]pyridine-5-carboxylic acid [5-(3-trifluoromethyl-benzenesulfonyl)-pyridin-2-ylmethyl]-amide], the figures for the IC50 in experiment [1] and in experiment [2] (setting [3]) were 39.4 nM and 16.3 nM, respectively.

Consider `CS(=O)(=O)c1cccc(S(=O)(=O)c2ccc(CNC(=O)c3cnc4[nH]ncc4c3)nc2)c1` [Example 134, N-[[5-(3-methylsulfonylphenyl)sulfonyl-2-pyridyl]methyl]-1H-pyrazolo[3,4-b]pyridine-5-carboxamide], for which the values for the IC50 in experiment [1] and in experiment [2] (setting [3]) were 16.8 nM and 446 nM, respectively.

Regarding `CCn1cc(S(=O)(=O)c2ccc(CNC(=O)N3Cc4ccncc4C3)nc2)cn1` [Example 177, N-[[5-(1-ethylpyrazol-4-yl)sulfonyl-2-pyridyl]methyl]-1,3-dihydropyrrolo[3,4-c]pyridine-2-carboxamide], the results for the IC50 in experiment [1] and in experiment [2] (setting [4]) were 32 nM and 264 nM, respectively.

Take `O=C(NCc1ccc(S(=O)(=O)N2CCC(N3CCCC3)CC2)cn1)c1cnc2[nH]ncc2c1` [Example 149, N-[[5-[(4-pyrrolidin-1-yl-1-piperidyl)sulfonyl]-2-pyridyl]methyl]-1H-pyrazolo[3,4-b]pyridine-5-carboxamide]: the IC50 in experiment [1] was 619 nM; in experiment [2] (setting [4]) it was 1860 nM.

Turning to `O=C(NCc1ccc(S(=O)(=O)C2CCN(C3CCOCC3)CC2)cn1)c1cc2cnccc2[nH]1` [Example 42, 1H-Pyrrolo[3,2-c]pyridine-2-carboxylic acid {5-[1-(tetrahydro-pyran-4-yl)-piperidine-4-sulfonyl]-pyridin-2-ylmethyl)-amide], the figures for the IC50 in experiment [1] and in experiment [2] (setting [3]) were 249 nM and 86.3 nM, respectively.

Turning to `CCCC(=O)N1CCC(S(=O)(=O)c2ccc(CNC(=O)c3cc4ccncc4o3)nc2)CC1` [Example 130, N-[[5-[(1-butanoyl-4-piperidyl)sulfonyl]-2-pyridyl]methyl]furo[2,3-c]pyridine-2-carboxamide], the IC50 came to 39.8 nM in experiment [1] and 50.7 nM in experiment [2] (setting [3]).

On to `O=C(NCc1ccc(S(=O)(=O)c2cncc(C(F)(F)F)c2)cn1)c1ccc2nccn2c1` [Example 168, N-[[5-[[5-(trifluoromethyl)-3-pyridyl]sulfonyl]-2-pyridyl]methyl]imidazo[1,2-a]pyridine-6-carboxamide], for which the IC50 is 60.8 nM in experiment [1] and 14.9 nM in experiment [2] (setting [3]).

With `CN(C)c1ncc(S(=O)(=O)c2ccc(CNC(=O)N3Cc4ccncc4C3)nc2)s1` [Example 98, 1,3-Dihydro-pyrrolo[3,4-c]pyridine-2-carboxylic acid [5-(2-dimethylamino-thiazole-5-sulfonyl)-pyridin-2-ylmethyl)-amide], the IC50 in experiment [1] turned out to be 6.6 nM; in experiment [2] (setting [3]) it was 4.97 nM.

As to `O=C(NCc1ccc(S(=O)(=O)c2ccc(N3CCOCC3)cc2)cn1)c1cc2ccncc2s1` [Example 39, Thieno[2,3-c]pyridine-2-carboxylic acid [5-(4-morpholin-4-yl-benzenesulfonyl)-pyridin-2-ylmethyl]-amide], the IC50 came to 2.8 nM in experiment [1] and 0.8 nM in experiment [2] (setting [4]).

On to `O=C(NCc1ccc([S+]([O-])c2cc(F)cc(F)c2)cn1)c1cnc2[nH]ncc2c1` (racemic) [Example 15, 1H-Pyrazolo[3,4-b]pyridine-5-carboxylic acid [5-(3,5-difluoro-benzenesulfinyl)-pyridin-2-ylmethyl]-amide (racemic)], for which the IC50 is 357 nM in experiment [1] and 309 nM in experiment [2] (setting [3]).

`O=C(NCc1ccc(S(=O)(=O)C2CCNCC2)cn1)c1ccc2nccn2c1` [Example 27, Imidazo[1,2-a]pyridine-6-carboxylic acid [5-(piperidine-4-sulfonyl)-pyridin-2-ylmethyl]-amide]: the IC50 in experiment [1] turned out to be 572 nM; in experiment [2] (setting [3]), 930 nM.

Regarding `Cn1cc(S(=O)(=O)c2ccc(CNC(=O)c3ccc4nccn4c3)nc2)cn1` [Example 36, Imidazo[1,2-a]pyridine-6-carboxylic acid [5-(1-methyl-1H-pyrazole-4-sulfonyl)-pyridin-2-ylmethyl]-amide], the IC50 in experiment [1] was determined as 101 nM; in experiment [2] (setting [3]), 472 nM.

On to `O=C(NCc1ccc(S(=O)(=O)N2CCN(C3CCOCC3)CC2)cn1)c1cc2ccncc2o1` [Example 127, N-[[5-(4-tetrahydropyran-4-ylpiperazin-1-yl)sulfonyl-2-pyridyl]methyl]furo[2,3-c]pyridine-2-carboxamide], for which the IC50 in experiment [1] was 49.2 nM; in experiment [2] (setting [3]) it was 31.3 nM.

Consider `CN1CCN(c2ccc(S(=O)(=O)c3ccc(CNC(=O)c4cnc5nccn5c4)nc3)cn2)CC1` [Example 47, Imidazo[1,2-a]pyrimidine-6-carboxylic acid {5-[6-(4-methyl-piperazin-1-yl)-pyridine-3-sulfonyl]-pyridin-2-ylmethyl}-amide], for which the IC50 was 2.2 nM in experiment [1] and 14.1 nM in experiment [2] (setting [3]).

With `O=C(NCc1ccc(S(=O)(=O)c2cccc(OC(F)(F)F)c2)cn1)N1Cc2ccncc2C1` [Example 50, 1,3-Dihydro-pyrrolo[3,4-c]pyridine-2-carboxylic acid [5-(3-trifluoromethoxy-benzenesulfonyl)-pyridin-2-ylmethyl]-amide], the values for the IC50 in experiment [1] and in experiment [2] (setting [3]) were 3.4 nM and 13.5 nM, respectively.

For the molecule `O=C(NCc1ccc(S(=O)(=O)c2ccc(N3CCOCC3)nc2)cn1)N1Cc2ccncc2C1` [Example 125, N-[[5-[(6-morpholino-3-pyridyl)sulfonyl]-2-pyridyl]methyl]-1,3-dihydropyrrolo[3,4-c]pyridine-2-carboxamide], the IC50 is 14 nM in experiment [1] and 10.2 nM in experiment [2] (setting [3]).

For the molecule `CCN(C)c1ncc(S(=O)(=O)c2ccc(CNC(=O)c3ccc4nccn4c3)nc2)s1` [Example 145, N-[[5-[2-[ethyl(methyl)amino]thiazol-5-yl]sulfonyl-2-pyridyl]methyl]imidazo[1,2-a]pyridine-6-carboxamide], the IC50 came to 10.1 nM in experiment [1] and 2.87 nM in experiment [2] (setting [3]).

Turning to `O=C(NCc1ccc(S(=O)(=O)c2ccccc2)cn1)c1cnc2nccn2c1` [Example 185, N-[[5-(benzenesulfonyl)-2-pyridyl]methyl]imidazo[1,2-a]pyrimidine-6-carboxamide], the IC50 turned out to be 20.2 nM in experiment [1] and 495 nM in experiment [2] (setting [3]).

Regarding `O=C(NCc1ccc([S+]([O-])c2cccc(C(F)(F)F)c2)cn1)N1Cc2ccncc2C1` (centres unmarked) [Example 120, N-[[5-[3-(trifluoromethyl)phenyl]sulfinyl-2-pyridyl]methyl]-1,3-dihydropyrrolo[3,4-c]pyridine-2-carboxamide], the IC50 was found to be 11.7 nM in experiment [1] and 7.59 nM in experiment [2] (setting [3]).

On to `O=C(NCc1ccc(S(=O)(=O)c2cccc(OC(F)(F)F)c2)cn1)c1cc2ccncc2o1` [Example 23, Furo[2,3-c]pyridine-2-carboxylic acid [5-(3-trifluoromethoxy-benzenesulfonyl)-pyridin-2-ylmethyl)-amide], for which the IC50 in experiment [1] was found to be 6.1 nM; in experiment [2] (setting [3]) it was 10.8 nM.

(Values after patent US9458172B2, “Pyridinyl and pyrimidinyl sulfoxide and sulfone derivatives” (priority 2012, dated 2016).)
